# Read-outs that look alike come from different tables or passages of the source. Marks after values point to notes of the source that are not given here.
# Assays:
# HT1080 xenografts [1] = experiment: BrdU labeling of tumor cells from HT1080 xenografts in nude mice; assay type: in vivo, athymic nude mice; conditions: Days 1-3; Compound #10 10 mg/kg oral QD, doxorubicin, bevacizumab
# Method: (§1) Experimental Design. HT1080 cells (5×10^6 cells/mouse) were implanted subcutaneously in male athymic nude mice.
# The mice were sacrificed 3 hours later, and the tumors collected. A single cell suspension was prepared from the tumor cells. The cells were permeabilized and an antibody to BrdU was used to stain cells that had entered S phase during the labeling period. The proportion of cells actively synthesizing DNA was determined by cell sorting.
# [2] = tested on: human VEGF121 and VEGF165; experiment: Intratumoral and plasma human VEGF (ELISA) in nude mice bearing HT1080 xenografts; assay type: in vivo, athymic nude mice; conditions: Day 1; Compound #10 10 mg/kg oral QD, doxorubicin 6 mg/kg IP, bevacizumab 5 mg/kg IP single bolus
# Method: (§2) In all of these experiments, HT1080 cells (5×10^6 cells/mouse) were implanted subcutaneously in male athymic nude mice. When tumors had become established, mice were divided into groups (10 mice/group). […] Tumor size was measured by calipers at the beginning and end of treatment. At the completion of Compound administration, the mice were sacrificed, and excised tumors were assayed by ELISA for intratumoral VEGF or other angiogenic factors using methods analogous to those described in Section 9.1.1.1.
# Tumor size was measured using calipers at periodic intervals during the study (data shown in Section 9.2.2). […] The study was ended after 18 days, when the vehicle treated tumors reached a mean volume of ˜1755 mm^3. […] Mice were sacrificed, and excised tumors were homogenized in buffer containing protease inhibitors. Both terminal intratumoral and pathologic plasma human VEGF levels were measured using an ELISA that recognizes human VEGF121 and VEGF165 (as described in Section 9.1.1.1). […]
# Experimental Design. […] Both intra-tumor and pathologic plasma human VEGF levels were measured using an ELISA that recognizes human VEGF121 and VEGF165. […]
# Tumor size was measured by calipers immediately pre-treatment and at the time of sacrifice on Day 1, 2, or 3 (5 mice per group per day). […]
# [3] = tested on: soluble VEGF121 and VEGF165; experiment: Inhibition of soluble VEGF production in human tumor cell lines, ELISA EC50 (Table 4); assay type: cell-based; conditions: tumor cells, data not shown
# Method: Study Design. […] In these experiments, cultures were established under normoxic conditions (21% oxygen). […] Cells requiring induction of VEGF production were incubated under hypoxic conditions (1% oxygen). At the completion of treatment, the conditioned media were collected and assayed by ELISA (as described in Section 9.1.1.1) for soluble VEGF121 and VEGF165 isoforms; results were calculated as percentage inhibition relative to vehicle treated controls. EC50 values were calculated from the dose concentration response curves.
# HT1080 cells = experiment: Cell cycle analysis in HT1080 cells, propidium iodide flow cytometry (Table 24; reversibility); assay type: cell-based, human; conditions: tumor cells, data not shown
# Method: Experimental Design. […] After treatment, cells were trypsinized, and stained with propidium iodide (PI) dye to measure DNA content of individual cells by flow cytometry. Output comprised histograms showing relative DNA content in 10,000 cells.
# While compounds which cause greater than 20% of the cells to accumulate in S-phase at 100 nM are considered active, a larger percentage of cells may be accumulated in S-phase at lower doses depending on the Compound, as shown in FIG. 12 for example.
# D245MG-PR cells = experiment: D245MG-PR (procarbazine-resistant) lethality model of GBM, monotherapy and with temozolomide; assay type: in vivo, Balb/C nu/nu mice; conditions: Cpd #10 10 mg/kg oral QD from Day 3; TMZ 250 mg/kg IP from Day 5 (control 70 days)
# Method: Forty (40) female Balb/C nu/nu mice at least 6 weeks of age but not more than 12 weeks at study initiation, weighing at study initiation 18-28 g, were implanted intracranially. D245MG-PR cells (procarbazine-resistant cells derived from an adult human GBM tumor) in a medium using a 25-gauge needle. Mice were anesthetized with Ketamine/Rompun cocktail prior to IC implantation. The day of tumor cell implantation was designated as Day 0. Animals were randomly assigned to treatment groups (10 mice per treatment group).
# Mice in Group 1 were administered L21 vehicle alone orally once per day beginning on Day 3. […] Mice in Group 3 were administered 250 mg/kg TMZ intraperitoneally (IP) beginning on Day 5.
# Body weights were measured the day that dosing was initiated and once a week thereafter. Observations were made on animals that died or were sacrificed at an unscheduled interval. Animals were sacrificed if moribund.
# HT1080 xenografts [4] = experiment: Tumor growth in nude mice bearing HT1080 xenografts; assay type: in vivo, athymic nude mice
# Method: as §2
# Experimental Study Design. HT1080 cells (5×10^6 cells/mouse) were implanted subcutaneously in male athymic nude mice.
# Tumor size was measured using calipers at periodic intervals during the study (data shown in Section 9.2.2). […] The study was ended after 18 days, when the vehicle treated tumors reached a mean volume of ˜1755 mm^3. […] Mice were sacrificed, and excised tumors were homogenized in buffer containing protease inhibitors. Both terminal intratumoral and pathologic plasma human VEGF levels were measured using an ELISA that recognizes human VEGF121 and VEGF165 (as described in Section 9.1.1.1). Intratumoral VEGF levels were normalized to the total tumor protein concentration, while pathologic plasma human VEGF levels were expressed in pg/mL of plasma.
# Experimental Design. HT1080 cells (5×10^6 cells/mice) were implanted subcutaneously into male athymic nude mice. Treatment with vehicle alone or Compound 1205 was initiated when the median tumor volume was approximately 311±88 mm^3. Table 7 and Table 9 (study design #21 and #23) provide the study design for assessing tumor and plasma pathologic VEGF concentrations—each group in each study included eight (8) mice. When the tumors in vehicle-treated mice had reached the target size of ˜1200 mm^3 for study #21 and ˜1500 mm^3 for study #23, all mice in the study were sacrificed, and excised tumors were homogenized in buffer containing protease inhibitors. Both intra-tumor and pathologic plasma human VEGF levels were measured using an ELISA that recognizes human VEGF121 and VEGF165. Intra-tumor VEGF levels were normalized to the total tumor protein concentration and pathologic plasma VEGF levels were expressed in pg/mL. Because smaller tumors produce less VEGF per mg of tumor protein, intra-tumor VEGF levels were normalized to tumor size.
# Experimental Design. HT1080 cells (5×10^6 cells/mouse) were implanted subcutaneously in male athymic nude mice. […] For comparison, Compound #10 was included in this study.
# as §1
# Tumor size was measured by calipers immediately pre-treatment and at the time of sacrifice on Day 1, 2, or 3 (5 mice per group per day). At sacrifice, the plasma was collected for assay of pathologic human VEGF concentration using an ELISA that recognizes human VEGF121 and VEGF165 (as described in Section 9.1.1.1).
# in vivo [5] = conditions: Sprague Dawley, rat
# Method: (§4) The L23 vehicle was used. […] All studies in the toxicology program were conducted according to GLP regulations.
# [6] = Oral pharmacokinetics in mice; assay type: in vivo; conditions: mouse, plasma, 1-mg/kg dose level, Day 1, read-out: Plasma trough concentration at 24 hours (minimal mean target plasma concentration)
# Method: The pharmacokinetic evaluations in mice were adjuncts to the primary pharmacodynamic xenograft studies. The evaluations in rats included toxicokinetic assessments in single-dose, 7-day, and 28-day toxicology studies as well as a mass-balance study after a single oral dose of ^14C-Compound #10. The evaluations in dogs included toxicokinetic assessments in 7-day and 28-day toxicology studies. In the studies performed, rodents were dosed once daily with Compound #10 formulated in vehicle and administered via oral gavage.
# [7] = Single-dose oral toxicity study in rats; conditions: Sprague Dawley, rat, in vivo, single oral gavage, read-out: NOAEL for 1 day of dosing
# Method: (§3) The L23 vehicle was used.
# Because maximal exposure occurred at 100 mg/kg, this dose is considered the NOAEL for 1 day of dosing.
# [8] = Phase 1 multiple-dose study in healthy volunteers: pharmacokinetics (Table 28); assay type: in vivo; conditions: human, plasma, oral; for concentration at 24 h: 24 hours after first daily dose, read-out: C24 h; for AUC(0-t): read-out: AUC0-24; for Cmax: read-out: Cmax (after PM dose)
# Method: The study was performed under the oversight of the French health authorities. The study was not performed under an IND.
# Methods. The trial was a Phase 1, randomized, escalating multiple dose, single center study conducted in 2 stages.
# Capsules contained 2 mg or 20 mg of active substance.
# Capsules contained 20 mg or 25 mg of active substance.
# Noncompartmental methods were used to compute Tmax, Cmax, and AUC. Dose proportionality and sex effect were evaluated using ANOVA on log transformed PK parameters using dose, sex, and dose by sex as fixed factors.
# [9] = 7-day oral toxicity study in rats; conditions: Sprague Dawley, rat, in vivo
# Method: as §3
# Maximal exposures occurred at a dose of 120 mg/kg/day.
# [10] = Trough plasma concentrations of Compound #10 in HT1080 xenograft mice (HPLC-MS/MS); assay type: in vivo; conditions: athymic nude, mouse, oral, 1 mg/kg BID
# in vivo [11] = conditions: both, beagle, dog
# Method: as §4
# in vivo [12] = conditions: beagle, dog
# Method: as §4
# [13] = both sexes, 0.3 mg/kg, Stage 1, 0.3 mg/kg BID, Day 1, mean
# [14] = both sexes, 0.3 mg/kg, Stage 1, 0.3 mg/kg BID, Day 7, mean
# [15] = both sexes, 0.6 mg/kg, Stage 1, 0.6 mg/kg BID, Day 1, mean
smiles,measurement,setting,value
COc1cccc2c1C(=O)c1c(O)c3c(c(O)c1C2=O)C[C@@](O)(C(=O)CO)C[C@@H]3O[C@H]1C[C@H](N)[C@H](O)[C@H](C)O1 [doxorubicin],BrdU staining of tumor cells (fraction in S phase),HT1080 xenografts [1],decreased the percentage of tumor cells staining with BrdU
same,Pathologic plasma human VEGF levels vs control,[2],numerically lower than in control animals by Day 1
NC(Cn1ccc(=O)c(O)c1)C(=O)O (centres unmarked) [mimosine],VEGF production,[3],does not delay or prolong the cell cycle or reduce VEGF production
same,Cell cycle delay or prolongation,HT1080 cells,does not delay or prolong the cell cycle or reduce VEGF production
"Cn1nnc2c(C(N)=O)ncn2c1=O [TEMODAR, temozolomide]",Median survival time,D245MG-PR cells,86 days
O=C(Oc1ccc(Cl)cc1)N1CCc2c([nH]c3ccc(Cl)cc23)[C@@H]1c1ccc(OCC[C@H](O)CO)cc1 [Compound 1205],Mean difference in tumor growth rate at the Day that the vehicle-treated tumors taken off study (%),"HT1080 xenografts [4]; Study 21, 3 mg/kg QD, Day 14",80%**
same,Mean difference in tumor growth rate at the Day that the vehicle-treated tumors taken off study (%),"HT1080 xenografts [4]; Study 22, 0.5 mg/kg QD, Day 11",62%**
same,Mean difference in tumor growth rate at the Day that the vehicle-treated tumors taken off study (%),"HT1080 xenografts [4]; Study 22, 3 mg/kg QD, Day 11",75%**
same,Mean difference in tumor growth rate at the Day that the vehicle-treated tumors taken off study (%),"HT1080 xenografts [4]; Study 23, 1 mg/kg QD, Day 14",59%**
same,Mean difference in tumor growth rate at the Day that the vehicle-treated tumors taken off study (%),"HT1080 xenografts [4]; Study 24a, 10 mg/kg QD, Day 11",76%**
same,Mean difference in tumor growth rate at the Day that the vehicle-treated tumors taken off study (%),"HT1080 xenografts [4]; Study 24b, 0.3 mg/kg QD, Day 15",28% ^
COc1ccc([C@H]2c3[nH]c4ccc(Cl)cc4c3CCN2C(=O)Oc2ccc(Cl)cc2)cc1 (racemic) [Compound #10],NOAEL at 28 days,in vivo [5],12 mg/kg/day
same,concentration at 24 h,[6],100 to 150 ng/mL
same,NOAEL at 1 day,[7],100 mg/kg
same,concentration at 24 h,"[8]; both sexes, 0.3 mg/kg BID, Stage 1, 0.3 mg/kg BID, Day 1, mean",94 ng/mL
same,concentration at 24 h,"[8]; both sexes, 0.3 mg/kg BID, Stage 1, 0.3 mg/kg BID, Day 7, mean",210 ng/mL
same,AUC(0-t),[8]; [13],4310 ng·h/mL
same,Cmax,[8]; [13],480 ng/mL
same,Tmax,"[8]; both sexes, 0.3 mg/kg, Stage 1, 0.3 mg/kg BID, Day 1, mean, read-out: Tmax (after PM dose)",3.16 h
same,AUC(0-t),[8]; [14],8440 ng·h/mL
same,Cmax,[8]; [14],590 ng/mL
same,concentration at 24 h,"[8]; both sexes, 0.6 mg/kg BID, Stage 1, 0.6 mg/kg BID, Day 1, mean",260 ng/mL
same,concentration at 24 h,"[8]; both sexes, 0.6 mg/kg BID, Stage 1, 0.6 mg/kg BID, Day 7, mean",540 ng/mL
same,AUC(0-t),[8]; [15],10100 ng·h/mL
same,Cmax,[8]; [15],970 ng/mL
same,Tmax,"[8]; both sexes, 0.6 mg/kg, Stage 1, 0.6 mg/kg BID, Day 1, mean, read-out: Tmax (after PM dose)",3.17 h
same,Cmax,"[8]; both sexes, 0.6 mg/kg, Stage 1, 0.6 mg/kg BID, Day 7, mean",1160 ng/mL
same,Tmax,"[8]; both sexes, Stage 1 and Stage 2, read-out: Mean Tmax",~3 h
same,AUC(0-t),"[8]; both sexes, Stage 1, 0.6 mg/kg BID, Day 7, mean",18600 ng·h/mL
same,Tmax,"[8]; both, […], Stage 2, […] TID, Day 1, mean, read-out: Tmax (after PM dose)",2.5 h
same,Tmax,"[8]; both, Stage 1, 1.2 mg/kg BID, Day 1, mean, read-out: Tmax (after PM dose)",3 h
same,NOAEL at 7 days,[9]; female rats,120 mg/kg/day
same,NOAEL at 7 days,[9]; male rats,40 mg/kg/day
same,concentration at 16 h,"[10]; 16 hours after the first day of dosing (n=3), read-out: Mean trough plasma concentration",130 ng/mL
same,concentration at 16 h,"[10]; 16 hours after the first day of dosing (n=3), read-out: Mean trough plasma concentration (value in brackets)",280 ng/mL
same,concentration at 16 h,"[10]; 16 hours after the last dose on Day 18 (n=4), read-out: Steady state mean trough plasma concentration",820 ng/mL
same,NOAEL at 28 days,in vivo [11],30 mg/kg/day
same,NOAEL at 7 days,in vivo [12],60 mg/kg/day
